Reference: patent US9526915B2, “Methods for regulating cell mitosis by inhibiting serine/threonine phosphatase” (priority 2008, dated 2016)
“Also recorded” adds a separate entry of the source.

Key:
U87MG xenografts = experiment: U87MG s.c. xenografts in SCID mice, compound 102 and TMZ; assay type: in vivo
Procedure: (§1) 5×10^6 U87MG cells were inoculated s.c. into each flank of 20 SCID mice. When the xenografts were 0.5+/−0.1 cm (day 0), 5 animals each received i.p. vehicle alone days 1-12 (50% DMSO/H20); compound 102 alone at 1.5 mg/kg days 1-3, 5-7, & 9-11; TMZ alone at 80 mg/kg days 4, 8, 12; or both drugs at the same doses and schedules. If xenografts reached 1800 mm^3, animals were sacrificed. […] B, Survival curve combining the data from the study shown in FIG. 12A, with a second identical study involving a total of 10 animals with two xenografts each. Disease-free survival was defined as no recurrence of either xenografts. […] As in 12A, except that xenografts of SH-SY5Y cells were implanted in one flank only and animals were treated with one additional cycle of drugs, i.e., compound 102 on days 13-15, TMZ, on day 16, and compound 102 plus TMZ on the same schedules. […] E, Western blots of U87 cells in culture 24 hours after exposure to compound 102 at 2.5 uM, TMZ at 25 uM or DOX at 2 uM, and compound 102 plus TMZ or DOX. F, Western blots of U373 cells 24 hours after exposure to compound 102 at 2.5 uM, doxorubicin at 2 uM, and both drugs. G, Western blots of U373 cells 24 hours after exposure to TMZ at 25 uM, okadaic acid at 2 nM, and both drugs.
To determine the impact of altering DNA-damage defense mechanisms by inhibiting PP2A on the efficacy of cytotoxic chemotherapy, the effects of compound 102 combined with TMZ, a non-specific DNA-methylating drug, routinely used for the palliative treatment of GBM patients (Prados et al, 2008), were studied. SCID mice bearing s.c. xenografts of either the GBM line U87MG or the neuroblastoma line SH-SY5Y were treated with vehicle alone, compound 102 alone, TMZ alone, or both drugs at the same doses and schedules as when given alone.

SH-SY5Y xenografts = experiment: SH-SY5Y neuroblastoma s.c. xenografts in SCID mice, compound 102 and TMZ; assay type: in vivo; conditions: as U87MG plus one additional cycle; followed 7 weeks
Procedure: 5×10^6 U87MG cells were inoculated s.c. into each flank of 20 SCID mice. When the xenografts were 0.5+/−0.1 cm (day 0), 5 animals each received i.p. vehicle alone days 1-12 (50% DMSO/H20); compound 102 alone at 1.5 mg/kg days 1-3, 5-7, & 9-11; TMZ alone at 80 mg/kg days 4, 8, 12; or both drugs at the same doses and schedules. If xenografts reached 1800 mm^3, animals were sacrificed. […] B, Survival curve combining the data from the study shown in FIG. 12A, with a second identical study involving a total of 10 animals with two xenografts each. Disease-free survival was defined as no recurrence of either xenografts. […] As in 12A, except that xenografts of SH-SY5Y cells were implanted in one flank only and animals were treated with one additional cycle of drugs, i.e., compound 102 on days 13-15, TMZ, on day 16, and compound 102 plus TMZ on the same schedules. […] E, Western blots of U87 cells in culture 24 hours after exposure to compound 102 at 2.5 uM, TMZ at 25 uM or DOX at 2 uM, and compound 102 plus TMZ or DOX. F, Western blots of U373 cells 24 hours after exposure to compound 102 at 2.5 uM, doxorubicin at 2 uM, and both drugs. G, Western blots of U373 cells 24 hours after exposure to TMZ at 25 uM, okadaic acid at 2 nM, and both drugs. […]

NB xenografts = experiment: Histologic examination of xenografts 24 hours after single i.p. injection; assay type: in vivo, SCID mice; conditions: compound 102 1.5 mg/kg, TMZ 80 mg/kg
[1] = tested on: DAOY medulloblastoma cells; experiment: DAOY medulloblastoma s.c. xenografts in SCID mice; assay type: in vivo; conditions: treatment from day 6, by day 23
Procedure: DAOY medulloblastoma cells were implanted subcutaneously into the flanks of SCID mice. On day 6, mice were divided into 3 groups, one group receiving Compound 100, one group receiving Compound 102, and one group receiving vehicle alone. The subcutaneous tumor masses were measured on day 6, day 13, day 18, and on day 23 when all animals were sacrificed. […] In this model DAOY cells, when untreated, reached their maximum growth about 2 weeks after implantation with slow regression thereafterwards.

U373 cells = experiment: Western blots of U373 cells; assay type: cell-based, human; conditions: U373 (mutant p53), 24 hours
Procedure: as §1

PP2A [2] = target: T1, PP2A (Homo sapiens, UniProt P67775); experiment: PP2A activity in DAOY cells (immunoprecipitated PP2A/Akt-1 complexes, Malachite Green assay); assay type: cell-based; parameters: PP2A activity from the immunoprecipitated complexes was assayed; endogenous in cells; host or cells: DAOY cells; conditions: 0.15, 0.25, 0.3 μM, 1 hour
Procedure: Cultured DAOY cells were plated in […] flasks. When the cells were 80% confluent, the media was replaced with media containing either 0.15 μM Compound 102, 0.25 μM Compound 102, 0.3 μM Compound 102, or an equivalent volume of PBS vehicle. After 1 hour, the cells were washed three times in a 0.9% normal saline solution. T-PER solution was added to the cells, and cells were prepared for protein extraction. Lysates from each treatment group containing 300 μg of protein were applied to a spin column (Catch and Release v2.0 Reversible Immunoprecipitation System, Millipore, Billerica, Mass.) for immunoprecipitation of PP2A/Akt-1 kinase protein complexes using polyclonal anti-rabbit Akt-1 antibody (Cell Signaling Technology, Danvers, Mass.). PP2A activity from the immunoprecipitated complexes was assayed using a Malachite Green Phosphatase Assay specific for serine/threonine phosphatase activity (Ser/Thr Phosphatase Assay Kit 1, Millipore, Billerica, Mass.).
Target sequence in this assay (P67775 whole entry): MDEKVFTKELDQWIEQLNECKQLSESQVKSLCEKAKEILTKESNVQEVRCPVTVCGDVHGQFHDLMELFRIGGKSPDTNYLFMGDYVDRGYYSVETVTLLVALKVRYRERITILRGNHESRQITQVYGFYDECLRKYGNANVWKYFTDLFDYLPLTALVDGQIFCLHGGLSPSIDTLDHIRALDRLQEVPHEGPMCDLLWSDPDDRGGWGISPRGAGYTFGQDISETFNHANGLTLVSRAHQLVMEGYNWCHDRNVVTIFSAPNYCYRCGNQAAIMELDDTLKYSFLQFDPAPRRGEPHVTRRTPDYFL
Target sequence in this assay (P30153 2-589 partner limits assumed): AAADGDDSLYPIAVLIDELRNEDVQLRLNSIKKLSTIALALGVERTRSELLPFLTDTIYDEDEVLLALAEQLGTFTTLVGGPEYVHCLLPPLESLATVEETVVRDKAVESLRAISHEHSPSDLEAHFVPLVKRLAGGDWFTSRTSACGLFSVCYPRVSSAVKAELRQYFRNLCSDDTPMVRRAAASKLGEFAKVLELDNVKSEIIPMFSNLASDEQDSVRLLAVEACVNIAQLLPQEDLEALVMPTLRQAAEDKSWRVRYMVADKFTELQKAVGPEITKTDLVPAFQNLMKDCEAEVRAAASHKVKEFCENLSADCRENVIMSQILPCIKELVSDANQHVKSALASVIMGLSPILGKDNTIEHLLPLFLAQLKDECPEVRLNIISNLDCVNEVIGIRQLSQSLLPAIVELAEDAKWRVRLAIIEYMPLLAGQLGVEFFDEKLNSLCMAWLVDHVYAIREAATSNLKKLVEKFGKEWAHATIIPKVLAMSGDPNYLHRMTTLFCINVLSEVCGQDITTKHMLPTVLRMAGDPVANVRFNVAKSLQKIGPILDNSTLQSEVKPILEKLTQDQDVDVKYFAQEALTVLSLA

PP2A [3] = target: T1, PP2A; experiment: PP2A activity in U87 xenografts and normal brain after i.p. injection; assay type: in vivo, SCID mice; parameters: PP2A activity in U87 s.c. xenografts (blue) and in normal brain tissue (yellow) of SCID mice; from tissue; host or cells: U87 s.c. xenografts and normal brain tissue of SCID mice; conditions: single dose 1.5 mg/kg i.p.
Procedure: PP2A activity in U87 s.c. xenografts (blue) and in normal brain tissue (yellow) of SCID mice at different times after i.p. injection of 1.5 mg/kg compound 102 (one mouse per point; each lysate was measured in triplicate: mean and s.d.)
Recent work led to the discovery that treatment with the compound, compound 100, and several homologs inhibit the serine/threonine protein phosphatases PP2A (FIG. 1). Compound 102 inhibits PP2A (IC50=˜0.4 μM) more potently than PP1 (IC50=˜80 μM) (FIG. 2). Associated with their inhibition of PP2A, Compound 100 and homologs inhibit a variety of human cancer cell types growing in cell culture and growing in vivo as xenografts implanted subcutaneously in SCID mice (FIG. 3 and FIG. 4). […] Death of these cancer cells is associated with profound disruption of microtubular structures. Such patterns of disordered microtubules during mitosis have been noted after exposure of cancer cells to spindle toxins include such vincristine, vinblastine, taxol, taxotere, ionizing radiation, and DNA damaging agents including anthracyclines and the platinum based compounds. The morphologic appearance of cells displaying these characteristics has been called the mitotic catastrophe phenotype (Castedo et al 2004).
Target sequence in this assay (P67775 whole entry): as the sequence (P67775 whole entry) above

With `CC(C)(C)OC(=O)N1CCN(C(=O)C2C(C(=O)O)[C@H]3CC[C@@H]2O3)CC1` (stereo partly drawn) [Compound 102] the U87MG xenograft growth/regression (U87MG xenografts; compound 102 1.5 mg/kg i.p. days 1-3, 5-7, 9-11, TMZ 80 mg/kg days 4, 8, 12) was “minimally delayed growth; also recorded: slowed growth”, the “time of sacrifice (xenografts reached 1800 mm^3)” value (U87MG xenografts; same doses and schedules) was 4-5 week and the “NB (SH-SY5Y) xenograft growth” value (SH-SY5Y xenografts) was “completely suppressed growth for 2 weeks; also recorded: no growth until week 3”. The “cells with pyknotic nuclei” value (NB xenografts) was 50 % of cells, the “DAOY subcutaneous tumor mass” value [1] was “marked regression” and the “molecular changes in pAkt-1, p53, and MDM2 compared with U87MG” value (U373 cells) was “same molecular changes”. For the same molecule, the “PP2A activity in DAOY cell line” value (PP2A [2]) was “Inhibition”, the “PP2A activity in normal brain tissue” value (PP2A [3]) was “inhibits PP2A activity” and the “PP2A activity in s.c. U87 MG xenografts” value (PP2A [3]) was “inhibits PP2A activity”.
